Laboratory results reported in patent publication US9056865B2, “Pyridine-2-derivatives as smoothened receptor modulators” (Pfizer Inc., priority 2010, dated 2015).

Key:
Gli-Luc/MEF cells = test: Gli-Luc/MEF assay; type: cell-based, mouse; details: Mus musculus, MEF; Shh-stimulated luciferase, 48 hours
Experimental: The Gli-Luc/MEF cells obtained from Gli-Luc transgenic mice contain a luciferase reporter gene under the control of the Gli response element. Luciferase activity stimulated with Sonic hedgehog ligand was inhibited by Smo inhibitors, and IC50 was subsequently calculated.
Plates were incubated at 37° C. and 5% CO2 overnight. On day two, cells were dosed with test compounds at a final concentration ranging from 3 μM to 50 μM at a 3-time series dilution. Immediately after dosing cells with compounds, recombinant mouse sonic hedgehog (Shh, R&D Systems 464-SH) was added to a final concentration of 2 μg/mL. The cells were incubated with compounds and Shh for 48 hours at 37° C. and 5% CO2. Luciferase assays were conducted on Day 4 using the Bright-Glo Luciferase assay system (Promega E2620) according to Promega's protocol. Briefly, Bright-Glo luciferase reagent was made up and 25 μL were added to each well of the 384-well plate containing media. Plates were kept at room temperature for 5 minutes, and then read on an Envision Luminescence plate reader (Perkin-Elmer). IC50 of the inhibition was calculated by using GraphPad Prism.

human Smo = human Smo (Homo sapiens (Human), UniProt Q99835); test: Smo radioligand competition binding assay; details: for inhibition at 0.05 µM: 0.05 μM test compound, read-out: Smo % inh. @ 0.05 μM
Experimental: Smo Radioligand Competition Binding Assay
Membranes were prepared from a stable cell line created in HEK293FlpIn-TetR cells (Invitrogen) using Flp recombinase-mediated insertion of the pSecTag-FRT/V5-His vector containing a cDNA encoding amino acids […] of human Smo fused to the murine Igk leader sequence to produce a cell surface expressed Smo 181-781 protein. Hygromycin-resistant clones were obtained and stained for LacZ expression (no expression indicates a correct knock-in of fusion cDNA). LacZ-negative cells were analyzed for binding tritiated Smo antagonists. For membrane preparation, the HEK293 cells expressing Smo 181-781 were grown to 90% confluence in nine to fifteen 245 mm×245 mm×22 mm dishes, washed with Dulbecco's PBS (15 mL per dish) and harvested via scraping in 10 mL of DPBS. The cells were collected and centrifuged at 1500 rpm (400×g) for 10 min at 4° C. The cell pellets were re-suspended in 40 mL of cold DPBS and washed by centrifugation at 2300 rpm (950×g max) for 10 minutes at 4° C. The supernatant was aspirated and the cell pellet was snap frozen in a methanol/dry ice bath and stored at −70° C. For membrane preparation, 15 mL of Membrane Preparation Buffer (50 mM Tris-HCl pH 7.5, 250 mM sucrose with Roche complete protease cocktail tablets) was added to the tube containing the cell pellet, then cells are rapidly thawed, and homogenized using an Ultra-Turrax T8 (IKA Labortechnik) set on “6” for 15 seconds for 5-6 times in icy water bath. This homogenate was diluted up to 50 mL using Membrane Preparation Buffer and centrifuged at 35,000 rpm in a Beckman Ti45 rotor (140,000×g) for 35 minutes at 4° C. followed by aspiration of the supernatant and re-suspension of the pellet in 5 mL of Assay Buffer (50 mM Tris-HCl pH 7.5, 100 mM NaCl, 25 mM MgCl2, 1 mM EDTA, and 0.1% protease free bovine serum albumin). The re-suspended pellet was then homogenized in a glass tissue grinder. The re-suspended membranes were aliquoted (0.5 mL aliquots), snap frozen and stored at −70° C. Total protein in the membrane preparation was determined using the Pierce BCA protein assay (Pierce Chemical).
For the binding competition assay, 100 μL of Assay Buffer was added to all the wells of a 96 well GF/B filter plate (Millipore MultiScreen-HTS-FB cat# MSFBN6B50) for 10 minutes to pre-wet the filter prior to evacuation of the buffer (8 inches Hg for 8 seconds). To the pre-wet wells is added: 20 μL of Assay Buffer, 10 μL diluted test agent, 20 μL of a tritiated Smo antagonist (15 nM stock solution), and 50 μL of membrane preparation (40 μg total protein per well). The plates are sealed and mixed at room temperature for 5 min, incubated at room temperature for 2 hours, then washed 5 times with 100 μL/each of wash buffer and vacuum dried for 8 seconds at 8 inches Hg. The plate is then dried for one hour in a 60° C. oven prior to the addition of 45 μL of Microscint 20 (Packard, #6013621) to each well and incubation at RT for 30 minutes to 1 hour. The plate is counted in a TopCount scintillation counter (Perkin Elmer).
Data analysis uses Excel for % Inhibition and Graphpad Prism for IC50 calculation. Total binding (TB, in the absence of inhibitors)=average of tritiated Smo antagonist 3 nM+Smo membrane (40 μg/wells (approx 5000-7000 CPM)). Non-specific binding (NSB)=average of tritiated Smo antagonist (3 nM)+cold Smo antagonist (30 μM)+Smo membrane (approx 600-1200 CPM). Specific binding (SB)=(total binding−non-specific binding). % Inhibition=[1−(compound Specific binding/control Specific binding)]×100%. IC50 is calculated by fitting the data to the four parameter sigmoidal dose-response curve (variable slope) Y=Bottom+(Top-Bottom)/(1+10^((LogEC50−X)*HillSlope)). X is the logarithm of the inhibitor concentration. Y is the response; Y starts at Bottom and goes to Top with a sigmoid shape.

human Smo, sequence (Q99835 181-787): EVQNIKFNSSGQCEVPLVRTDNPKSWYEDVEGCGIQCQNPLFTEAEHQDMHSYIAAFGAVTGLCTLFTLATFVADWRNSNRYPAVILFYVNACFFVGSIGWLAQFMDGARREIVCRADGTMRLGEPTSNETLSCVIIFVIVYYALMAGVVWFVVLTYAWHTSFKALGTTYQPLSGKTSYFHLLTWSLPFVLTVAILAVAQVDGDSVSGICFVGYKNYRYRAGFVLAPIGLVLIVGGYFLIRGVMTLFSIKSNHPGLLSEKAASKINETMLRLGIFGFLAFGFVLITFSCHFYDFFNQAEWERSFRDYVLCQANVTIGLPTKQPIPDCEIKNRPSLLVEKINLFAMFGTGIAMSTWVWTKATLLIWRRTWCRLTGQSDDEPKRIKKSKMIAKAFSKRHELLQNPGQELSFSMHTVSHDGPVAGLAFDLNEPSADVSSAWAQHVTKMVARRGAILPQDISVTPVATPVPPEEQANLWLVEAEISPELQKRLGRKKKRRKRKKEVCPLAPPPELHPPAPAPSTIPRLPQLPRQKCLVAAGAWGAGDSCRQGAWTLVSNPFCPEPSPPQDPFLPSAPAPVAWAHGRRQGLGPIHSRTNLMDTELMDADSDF

Structure (SMILES) | IC50 (Gli-Luc/MEF cells) [nM] | inhibition at 0.05 µM (human Smo) [%] | IC50 (human Smo) [nM]
Cc1cccnc1-c1cc(N2[C@@H]3CC[C@H]2CN(C(=O)CC(C)(C)O)C3)ncc1Cl [Example A-107, 1-[(1R,5S)-8-(5′-chloro-3-methyl-2,4′-bipyridin-2′-yl)-3,8-diazabicyclo[3.2.1]oct-3-yl]-3-hydroxy-3-methylbutan-1-one] | 41.5 | 82.7 | –
CCN(CC)C(=O)COC1CCN(c2cc(-c3ncccc3C)c(Cl)cn2)CC1 [Example A-41, 2-{[1-(5′-chloro-3-methyl-2,4′-bipyridin-2′-yl)piperidin-4-yl]oxy}-N,N-diethylacetamide] | 28.5 | 82.3 | 131
Cc1cccnc1-c1nc(N2CCN(S(C)(=O)=O)CC2)ncc1Cl [Example A-33, 5-chloro-4-(3-methylpyridin-2-yl)-2-[4-(methylsulfonyl)piperazin-1-yl]pyrimidine] | 113 | 76.9 | 172
Cc1cnc(-c2ccnc(N3CCN(C(=O)CN4CCOCC4)CC3)c2)c(C)c1 [Example A-157, 1-[4-(3,5-dimethyl-2,4′-bipyridin-2′-yl)piperazin-1-yl]-2-(morpholin-4-yl)ethanone] | 3.58 | 101 | 14.8
Cc1cnc(-c2cc(N3CCC(S(C)(=O)=O)CC3)ncc2Cl)c(C)c1 [Example A-134, 5′-chloro-3,5-dimethyl-2′-[4-(methylsulfonyl)piperidin-1-yl]-2,4′-bipyridine] | 37.7 | 80.8 | 114
Cc1cccnc1-c1cc(N2CCC(C(=O)NCCc3nc4cccnc4n3C)CC2)ncc1Cl [Example A-73, 1-(5′-chloro-3-methyl-2,4′-bipyridin-2′-yl)-N-[2-(3-methyl-3H-imidazo[4,5-b]pyridin-2-yl)ethyl]piperidine-4-carboxamide] | 55.8 | 76.1 | 154
CC(=O)N1CCN(c2cc(-c3ncccc3C)c(Cl)cn2)CC1 [Example A-23, 2′-(4-acetylpiperazin-1-yl)-5′-chloro-3-methyl-2,4′-bipyridine] | 194 | 59.5 | 417
Cc1cccnc1-c1ccnc(N2CCC(NS(C)(=O)=O)CC2)n1 [Example A-50, N-{1-[4-(3-methylpyridin-2-yl)pyrimidin-2-yl]piperidin-4-yl}methanesulfonamide] | 27.4 | 97.1 | 17.7
CS(=O)(=O)NC1CCN(c2cc(-c3ccc(Cl)cn3)c(Cl)cn2)CC1 [Example A-11, N-[1-(5,5′-dichloro-2,4′-bipyridin-2′-yl)piperidin-4-yl]methanesulfonamide] | 152 | 78 | 32.9
Cc1cc(F)cnc1-c1nc(N2CCC(NS(C)(=O)=O)CC2)ccc1Cl [Example A-154, N-[1-(3-chloro-5′-fluoro-3′-methyl-2,2′-bipyridin-6-yl)piperidin-4-yl]methanesulfonamide] | 39.5 | 94.3 | 29.2
Cc1cnc(-c2cc(N3CCC(O)CC3)ncc2Cl)c(C)c1 [Example A-94, 1-(5′-chloro-3,5-dimethyl-2,4′-bipyridin-2′-yl)piperidin-4-ol] | 28.4 | 88 | 44.2
Cc1cccnc1-c1cc(N2CCC(C(=O)N[C@@H]3CCN(S(C)(=O)=O)C3)CC2)ncc1Cl [Example A-57, 1-(5′-chloro-3-methyl-2,4′-bipyridin-2′-yl)-N-[(3R)-1-(methylsulfonyl)pyrrolidin-3-yl]piperidine-4-carboxamide] | 78.2 | 87.9 | 90.7
Cc1ccc(-c2nc(N3CCC(NS(C)(=O)=O)CC3)ncc2Cl)nc1 [Example A-119, N-{1-[5-chloro-4-(5-methylpyridin-2-yl)pyrimidin-2-yl]piperidin-4-yl}methanesulfonamide] | 22.9 | 88.5 | 58.9
Cc1cccnc1-c1cc(N2CCN(c3ccc(C#N)cn3)CC2)ncc1Cl [Example A-19, 6-[4-(5′-chloro-3-methyl-2,4′-bipyridin-2′-yl)piperazin-1-yl]nicatinonitrile] | 10.1 | 91.5 | 37.5
CC(C)(O)CC(=O)NC1CCN(c2ccc(Cl)c(-c3ccccn3)n2)CC1 [Example A-131, N-[1-(3-chloro-2,2′-bipyridin-6-yl)piperidin-4-yl]-3-hydroxy-3-methylbutanamide] | 20.7 | 92.7 | 30.5
COCC(=O)N1CCN(c2cc(-c3ncccc3C)c(Cl)cn2)CC1 [Example A-28, 5′-chloro-2′-[4-(methoxyacetyl)piperazin-1-yl]-3-methyl-2,4′-bipyridine] | 146 | 68.9 | 212
CCS(=O)(=O)NC1CCN(c2cc(-c3ncc(C)cc3C)c(Cl)cn2)CC1 [Example A-121, N-[1-(5′-chloro-3,5-dimethyl-2,4′-bipyridin-2′-yl)piperidin-4-yl]ethanesulfonamide] | 4.25 | 101 | 11.6
Cc1cccnc1-c1cc(N2CCN(C(=O)CO)CC2)ncc1Cl [Example A-25, 2-[4-(5′-chloro-3-methyl-2,4′-bipyridin-2′-yl)piperazin-1-yl]-2-oxoethanol] | 197 | 72.1 | 239
COCCS(=O)(=O)N1CCN(c2cc(-c3ncc(C)cc3C)ccn2)CC1 [Example A-155, 2′-{4-[(2-methoxyethyl)sulfonyl]piperazin-1-yl}-3,5-dimethyl-2,4′-bipyridine] | 45 | 77.1 | 97
Cc1cccnc1-c1cc(N2CCC(C(=O)N3CCC(Nc4ccccn4)CC3)CC2)ncc1Cl [Example A-56, N-(1-{[1-(5′-chloro-3-methyl-2,4′-bipyridin-2′-yl)piperidin-4-yl]carbonyl}piperidin-4-yl)pyridin-2-amine] | 41.6 | 80.5 | 106
Cc1cccnc1-c1cc(N2CCC3(CC2)CNC(=O)O3)ncc1Cl [Example A-21, 8-(5′-chloro-3-methyl-2,4′-bipyridin-2′-yl)-1-oxa-3,8-diazaspiro[4.5]decan-2-one] | 114 | 65.9 | 297
Cc1cnc(-c2cc(N3CCC(NS(=O)(=O)C4CC4)CC3)ncc2Cl)c(C)c1 [Example A-127, N-[1-(5′-chloro-3,5-dimethyl-2,4′-bipyridin-2′-yl)piperidin-4-yl]cyclopropanesulfonamide] | 5.03 | 97.8 | 11.5
